The text below walks through data of patent publication US20250368649A1, “TETRAHYDROPYRIDOPYRIMIDINE PAN-KRAS INHIBITORS” (Mirati Therapeutics, Inc., priority 2022, published 2025).

One assay addresses KRas G12R (Homo sapiens, UniProt P01116, G12R). In words: biochemical. As to conditions: Binding to KRas (IC50 nM) G12R, TR-FRET displacement, KRas G12R. (In general: TR-FRET usually uses a lanthanide donor and a delayed reading to cut background.)
The test system of the next assay is H727 cells. In words: Inhibition of KRas-mediated phosphorylation of ERK (Cisbio HTRF pERK), H727 cells. The class given is cell-based. The settings on record: Homo sapiens; for IC50: NCI-H727, 3 h, 3 hr compound incubation, Cisbio pERK HTRF.
In the next assay the test system is HCT116 cells. In words: Inhibition of KRas-mediated phosphorylation of ERK (Cisbio HTRF pERK), HCT116 cells. It is filed as cell-based. As to conditions: Homo sapiens, HCT-116, 3 h, 3 hr compound incubation, Cisbio pERK HTRF.
A further assay relates to PSN1 cells. As to the kind of experiment: Inhibition of KRas-mediated phosphorylation of ERK (Cisbio HTRF pERK), PSN1 cells. It is filed as cell-based. As to conditions: Homo sapiens, PSN1, 3 h, 3 hour compound incubation, Cisbio pERK HTRF. The method in brief:
(§1)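 Day 1: 6,000 cells/well plated, RPMI + 10% FBS.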

Another assay concerns the target KRas G12V (Homo sapiens, UniProt P01116, G12V). As to the kind of experiment: biochemical. The settings on record: Binding to KRas (IC50 nM) G12V, TR-FRET displacement, KRas G12V.
The next assay concerns H460 cells. As to the kind of experiment: Inhibition of KRas-mediated phosphorylation of ERK (Cisbio HTRF pERK), H460 cells. The class given is cell-based. As to conditions: Homo sapiens, NCI-H460, 3 h, 3 hr compound incubation, Cisbio pERK HTRF.
The test system of a further assay is MKN1 cells. As to the kind of experiment: Inhibition of KRas-mediated phosphorylation of ERK (Cisbio HTRF pERK), MKN1 cells. It is filed as cell-based. As to conditions: Homo sapiens, MKN-1, 3 hour compound incubation, Cisbio pERK HTRF. The essentials: as §1
For the next assay, the target named is KRas WT (Homo sapiens, UniProt P01116). In words: KRas binding assay (TR-FRET displacement), KRas WT. As to conditions: single point, 10 nM compound.
For another assay, the system named is A549 cells. In words: Inhibition of KRas-mediated phosphorylation of ERK (Cisbio HTRF pERK), A549 cells. The class given is cell-based. As to conditions: Homo sapiens; for IC50: A549, 3 h, 3 hr compound incubation, Cisbio pERK HTRF; for inhibition at 0.1 µM: single point at 100 nM, 3 hrs compound incubation.
Another assay addresses KRas G12C (Homo sapiens, UniProt P01116, G12C). It is filed as binding. The settings on record: single point, 10 nM compound, read-out: Binding to KRas (% inhibition at 10 nM) G12C.
A further assay has as its system H358 cells. In words: Inhibition of KRas-mediated phosphorylation of ERK (Cisbio HTRF pERK), H358 cells. It is filed as cell-based. The settings on record: Homo sapiens; for IC50: NCI-H358, 3 h, 3 hr compound incubation, Cisbio pERK HTRF; for inhibition at 0.1 µM: NCI-H358, single point at 100 nM, 3 hrs compound incubation.
The next assay has as its target KRas G13D (Homo sapiens, UniProt P01116, G13D). The class given is binding. As to conditions: single point, 10 nM compound, read-out: Binding to KRas (% inhibition at 10 nM) G13D.
For another assay, the target named is KRas G12D (Homo sapiens, UniProt P01116, G12D). As to the kind of experiment: biochemical. As to conditions: Binding to KRas (IC50 nM) G12D, TR-FRET displacement, KRas G12D.
Another assay has as its system ASPC1 cells. As to the kind of experiment: Inhibition of KRas-mediated phosphorylation of ERK (Cisbio HTRF pERK), ASPC1 cells. The settings on record: Homo sapiens, AsPC-1 cells; for IC50: ASPC1, 3 h, 3 hr compound incubation, Cisbio pERK HTRF. The class given is cell-based.
In another assay the target is KRas Q61H (Homo sapiens, UniProt P01116, Q61H). As to the kind of experiment: KRas binding assay (TR-FRET displacement), KRas Q61H. As to conditions: single point, 10 nM compound.
The target in the next assay is KRas G12S (Homo sapiens, UniProt P01116, G12S). It is filed as binding. As to conditions: single point, 10 nM compound, read-out: Binding to KRas (% inhibition at 10 nM) G12S.
The next assay addresses KRas G12A (Homo sapiens, UniProt P01116, G12A). The class given is binding. As to conditions: single point, 10 nM compound, read-out: Binding to KRas (% inhibition at 10 nM) G12A.

Sequence of KRas G12A (P01116 1-169 isoform P01116-2 G12A): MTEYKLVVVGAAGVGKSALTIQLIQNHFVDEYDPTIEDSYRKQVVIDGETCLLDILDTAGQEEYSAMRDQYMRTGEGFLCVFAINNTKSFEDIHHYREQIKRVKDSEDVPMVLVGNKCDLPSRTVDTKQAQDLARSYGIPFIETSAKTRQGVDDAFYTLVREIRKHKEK
Sequence of KRas G12V (P01116 1-169 isoform P01116-2 G12V): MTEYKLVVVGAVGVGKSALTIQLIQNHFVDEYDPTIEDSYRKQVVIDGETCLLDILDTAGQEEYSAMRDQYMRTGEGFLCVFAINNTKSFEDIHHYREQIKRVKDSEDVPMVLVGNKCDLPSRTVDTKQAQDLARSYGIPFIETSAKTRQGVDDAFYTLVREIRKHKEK
Sequence of KRas G13D (P01116 1-169 isoform P01116-2 G13D): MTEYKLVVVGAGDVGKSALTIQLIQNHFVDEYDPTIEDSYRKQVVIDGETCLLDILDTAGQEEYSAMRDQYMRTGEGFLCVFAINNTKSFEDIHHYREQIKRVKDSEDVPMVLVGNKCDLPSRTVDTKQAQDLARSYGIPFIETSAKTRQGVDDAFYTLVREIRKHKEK
Sequence of KRas G12R (P01116 1-169 isoform P01116-2 G12R): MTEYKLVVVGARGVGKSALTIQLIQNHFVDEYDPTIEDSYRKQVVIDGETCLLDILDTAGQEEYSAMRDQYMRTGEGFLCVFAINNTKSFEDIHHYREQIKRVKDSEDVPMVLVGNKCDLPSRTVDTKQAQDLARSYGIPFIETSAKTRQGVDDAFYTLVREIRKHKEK
Sequence of KRas WT (P01116 1-169 isoform P01116-2): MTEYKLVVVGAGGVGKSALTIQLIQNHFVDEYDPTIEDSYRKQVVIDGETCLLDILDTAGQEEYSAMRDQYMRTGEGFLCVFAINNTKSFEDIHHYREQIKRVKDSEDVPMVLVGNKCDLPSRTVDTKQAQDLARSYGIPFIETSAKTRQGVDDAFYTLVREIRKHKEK
Sequence of KRas G12C (P01116 1-169 isoform P01116-2 G12C): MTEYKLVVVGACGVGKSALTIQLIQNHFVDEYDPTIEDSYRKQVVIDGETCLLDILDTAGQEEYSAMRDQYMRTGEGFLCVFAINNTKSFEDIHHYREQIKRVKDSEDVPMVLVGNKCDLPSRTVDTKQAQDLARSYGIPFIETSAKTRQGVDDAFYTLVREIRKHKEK
Sequence of KRas Q61H (P01116 1-169 isoform P01116-2 Q61H): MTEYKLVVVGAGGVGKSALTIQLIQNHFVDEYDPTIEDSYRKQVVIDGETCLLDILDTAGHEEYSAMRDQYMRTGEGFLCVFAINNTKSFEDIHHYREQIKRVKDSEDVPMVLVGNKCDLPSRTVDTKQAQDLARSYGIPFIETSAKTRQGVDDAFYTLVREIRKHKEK
Sequence of KRas G12S (P01116 1-169 isoform P01116-2 G12S): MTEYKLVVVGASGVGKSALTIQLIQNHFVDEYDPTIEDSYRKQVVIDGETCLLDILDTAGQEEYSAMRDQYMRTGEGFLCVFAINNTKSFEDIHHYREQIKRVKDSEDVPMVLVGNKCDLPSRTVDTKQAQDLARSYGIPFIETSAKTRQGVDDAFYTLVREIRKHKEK
Sequence of KRas G12D (P01116 1-169 isoform P01116-2 G12D): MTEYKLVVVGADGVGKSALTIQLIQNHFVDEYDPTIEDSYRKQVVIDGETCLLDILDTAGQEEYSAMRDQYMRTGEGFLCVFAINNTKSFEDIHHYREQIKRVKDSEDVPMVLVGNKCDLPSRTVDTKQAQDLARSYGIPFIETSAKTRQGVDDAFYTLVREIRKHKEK

The IC50 is the concentration that inhibits the measured activity by half. Low readings indicate greater potency, high ones weaker potency. One may read the inhibition as the drop in the measured response relative to a control, in per cent. Take `CCc1c(F)ccc2cc(O)cc(N3CCc4c(nc(OC[C@@]56CCCN5C[C@H](F)C6)nc4N4CCCn5nc(C(=O)NCCOCCOC)cc5C4)C3)c12` [Example 374, 5-(7-(8-ethyl-7-fluoro-3-hydroxynaphthalen-1-yl)-2-(((2R,7aS)-2-fluorohexahydro-1H-pyrrolizin-7a-yl)methoxy)-5,6,7,8-tetrahydropyrido[3,4-d]pyrimidin-4-yl)-N-(2-(2-methoxyethoxy)ethyl)-5,6,7,8-tetrahydro-4H-pyrazolo[1,5-a][1,4]diazepine-2-carboxamide]: the IC50 at KRas G12R is less than 2 nM; with H727 cells it was 6 nM; in the assay with HCT116 cells, 105 nM; in the assay on PSN1 cells it was 4820 nM; on KRas G12V, less than 2 nM; in the assay on H460 cells it was 35 nM. Moreover, the IC50 with MKN1 cells is 13.5 nM; in the assay on A549 cells it was 25 nM; in the assay on H358 cells, 5 nM; on KRas G12D, less than 2 nM; in the assay with ASPC1 cells it was 4 nM. Moreover, the inhibition at 0.01 µM on KRas WT is 95%; on KRas G12C it was 99%; at KRas G13D, 94%; on KRas Q61H it was 96%; at KRas G12S, 99%; on KRas G12A, 96%. The figures for the inhibition at 0.1 µM in the assay with A549 cells and with H358 cells were 57% and 99%, respectively.

As for `CCc1c(F)ccc2cc(O)cc(N3CCc4c(nc(OC[C@@]56CCCN5C[C@H](F)C6)nc4N4CCCn5nc(C(=O)NCCOC)cc5C4)C3)c12` [Example 375, 5-(7-(8-ethyl-7-fluoro-3-hydroxynaphthalen-1-yl)-2-(((2R,7aS)-2-fluorohexahydro-1H-pyrrolizin-7a-yl)methoxy)-5,6,7,8-tetrahydropyrido[3,4-d]pyrimidin-4-yl)-N-(2-methoxyethyl)-5,6,7,8-tetrahydro-4H-pyrazolo[1,5-a][1,4]diazepine-2-carboxamide], the IC50 at KRas G12R is less than 2 nM; with H727 cells, 7 nM; with HCT116 cells it was 91 nM; with PSN1 cells, 3500 nM; at KRas G12V, less than 2 nM; in the assay with H460 cells, 36 nM. Also, the IC50 was 16.6 nM in the assay on MKN1 cells; 20 nM in the assay with A549 cells; 4 nM in the assay on H358 cells; less than 2 nM on KRas G12D; 4 nM with ASPC1 cells. The inhibition at 0.01 µM on KRas WT was 93%; on KRas G12C, 98%; at KRas G13D it was 93%; on KRas Q61H, 93%; at KRas G12S it was 98%; on KRas G12A, 94%. In addition, the inhibition at 0.1 µM was determined as 68% in the assay on A549 cells and 102% in the assay on H358 cells.

For `CCc1c(F)ccc2cc(O)cc(N3CCc4c(nc(OC[C@@]56CCCN5C[C@H](F)C6)nc4N4CCCn5nc(C(=O)NC6CCC6)cc5C4)C3)c12` [Example 378, N-cyclobutyl-5-(7-(8-ethyl-7-fluoro-3-hydroxynaphthalen-1-yl)-2-(((2R,7aS)-2-fluorohexahydro-1H-pyrrolizin-7a-yl)methoxy)-5,6,7,8-tetrahydropyrido[3,4-d]pyrimidin-4-yl)-5,6,7,8-tetrahydro-4H-pyrazolo[1,5-a][1,4]diazepine-2-carboxamide], the IC50 on KRas G12R was less than 2 nM; with H727 cells, 7 nM; in the assay on HCT116 cells, 160 nM; in the assay with PSN1 cells, 5170 nM; on KRas G12V, less than 2 nM; with H460 cells, 46 nM. Besides, the IC50 is 26.2 nM in the assay with MKN1 cells; 39 nM with A549 cells; 9 nM with H358 cells; less than 2 nM at KRas G12D; 3 nM with ASPC1 cells. Further, the inhibition at 0.01 µM on KRas WT was 91%; at KRas G12C, 97%; at KRas G13D it was 90%; on KRas Q61H, 91%; at KRas G12S, 96%; on KRas G12A it was 90%. In addition, the inhibition at 0.1 µM in the assay on A549 cells is 69%; in the assay with H358 cells, 105%.

`CCNC(=O)c1nn2c(c1C)CN(c1nc(OC[C@@]34CCCN3C[C@H](F)C4)nc3c1CCN(c1cc(O)cc4ccc(F)c(CC)c14)C3)CCC2` [Example 379, N-ethyl-5-(7-(8-ethyl-7-fluoro-3-hydroxynaphthalen-1-yl)-2-(((2R,7aS)-2-fluorohexahydro-1H-pyrrolizin-7a-yl)methoxy)-5,6,7,8-tetrahydropyrido[3,4-d]pyrimidin-4-yl)-3-methyl-5,6,7,8-tetrahydro-4H-pyrazolo[1,5-a][1,4]diazepine-2-carboxamide]: the IC50 was less than 2 nM on KRas G12R; 3 nM in the assay on H727 cells; 159 nM with HCT116 cells; 5330 nM in the assay with PSN1 cells; less than 2 nM at KRas G12V; 33 nM with H460 cells. Moreover, the half-inhibitory concentration (IC50) in the assay on MKN1 cells is 12.3 nM; in the assay with A549 cells it was 17 nM; in the assay on H358 cells, 3 nM; on KRas G12D, less than 2 nM; in the assay on ASPC1 cells it was 2 nM. The inhibition at 0.01 µM at KRas WT came to 93%; on KRas G12C it was 99%; on KRas G13D it was 92%; on KRas Q61H it was 92%; on KRas G12S it was 98%; on KRas G12A, 96%. Besides, the inhibition at 0.1 µM was determined as 91% in the assay on A549 cells and 105% in the assay with H358 cells.

Consider `CCc1c(F)ccc2cc(O)cc(N3CCc4c(nc(OC[C@@]56CCCN5C[C@H](F)C6)nc4N4CCCn5nc(C(=O)NC)c(C)c5C4)C3)c12` [Example 380, 5-(7-(8-ethyl-7-fluoro-3-hydroxynaphthalen-1-yl)-2-(((2R,7aS)-2-fluorohexahydro-1H-pyrrolizin-7a-yl)methoxy)-5,6,7,8-tetrahydropyrido[3,4-d]pyrimidin-4-yl)-N,3-dimethyl-5,6,7,8-tetrahydro-4H-pyrazolo[1,5-a][1,4]diazepine-2-carboxamide], for which the IC50 is less than 2 nM at KRas G12R; 5 nM in the assay with H727 cells; 95 nM in the assay with HCT116 cells; 4720 nM in the assay with PSN1 cells; less than 2 nM on KRas G12V; 30 nM in the assay with H460 cells. For the same compound, the IC50 is 10.8 nM with MKN1 cells; 2 nM in the assay on A549 cells; 3 nM in the assay on H358 cells; less than 2 nM at KRas G12D; 2 nM in the assay on ASPC1 cells. Also, the inhibition at 0.1 µM amounted to 69% in the assay on H727 cells (NCI-H727, single point at 100 nM, 3 hrs compound incubation); 81% in the assay on A549 cells; 93% in the assay with H358 cells; 94% in the assay on ASPC1 cells (ASPC1, single point at 100 nM, 3 hrs compound incubation). Also, the inhibition at 0.01 µM was 93% at KRas WT; 99% on KRas G12C; 94% on KRas G13D; 95% at KRas Q61H; 99% at KRas G12S; 96% at KRas G12A.
